Laboratory results: USRE40851E1, “3,3-diphenylpropylamines, their use and preparation” (Pfizer Health AB, priority 1992, dated 2009)
Structures can show the parent of a compound that is named as a salt.

How the values were obtained:
[1] = biological target: muscarinic receptor (urinary bladder); test: Muscarinic receptor binding, (−)3H-QNB competition, urinary bladder homogenate; settings: guinea pig urinary bladder, 2 nM (−)3H-QNB, 25° C., 60 minutes
Method: (§1) The tissue preparations and the general methods used have been described in detail elsewhere for the parotid gland^1, urinary bladder^2, heart^3 and cerebral cortex^3, respectively. Male guinea pigs (250-400 g body weight) were killed by a blow on the neck and exsanguinated. The brain was placed on ice for dissection of the cerebral cortex (grey matter only). Urinary bladders, hearts and parotid glands were dissected in a Krebs-Henseleit buffer (pH 7.4) containing 1 mM phenyl methyl sulfonyl fluoride (PMSF, a protease inhibitor). Dissected tissues were homogenized in an ice-cold sodium-potassium phosphate buffer (50 mM, pH 7.4) containing 1 mM PMSF, using a Polytron PT-10 instrument (bladder, heart, parotid) and a Potter-Elvehjem Teflon homogenizer (cortex). All homogenates were finally diluted with the ice-cold phosphate/PMSF buffer to a final protein concentration of ≦0.3 mg/ml and immediately used in the receptor binding assays. Protein was determined by the method of Lowry et al. (1951)^4, using bovine serum albumin as the standard.
(§2) The muscarinic receptor affinities of the unlabelled compounds A to D identified above were derived from competition experiments in which the ability to inhibit the receptor specific binding of (−)^3H-QNB (1-quinuclidinyl[phenyl-4-^3H]benzilate, 32.9 Ci/mmole) was monitored as previously described^3,5. Each sample contained 10 μl of (−)^3H-QNB (final concentration 2 nM), 10 μl solution of test compound and 1.0 ml tissue homogenate. Triplicate samples were incubated under conditions of equilibrium, i.e., at 25° C. for 60 minutes (urinary bladder), 80 minutes (heart and cerebral cortex) or 210 minutes (parotid gland), respectively. Non-specific binding was determined in the presence of 10 μM unlabelled atropine. Incubations were terminated by centrifugation^2, and the radioactivity in the pellets was determined by liquid scintillation spectrometry^2.
(§3) IC50-values (concentration of unlabelled compound producing 50% inhibition of the receptor specific (−)^3H-QNB binding) were graphically determined from the experimental concentration-inhibition curves. Affinities, expressed as the dissociation constants Ki, were calculated by correcting the IC50 for the radioligand-induced parallel shift and differences in receptor concentration, using the method of Jacobs et al. (1975)^6. The binding parameters for (−)^3H-QNB (KD and receptor densities) used in these calculations were determined in separate series of experiments^1-3.

[2] = biological target: muscarinic receptor (cerebral cortex); test: Muscarinic receptor binding, (−)3H-QNB competition, cerebral cortex homogenate; settings: guinea pig cerebral cortex, 2 nM (−)3H-QNB, 25° C., 80 minutes
Method: as §1, §2, §3

[3] = biological target: Smooth muscle strips of the urinary bladder (carbachol contraction); test: Functional in vitro study: antagonism of carbachol-induced contraction of urinary bladder smooth muscle strips; settings: guinea pig urinary bladder strips, carbachol agonist, 60 min incubation with antagonist; read-out: KH bladder
Method: Male guinea pigs, weighing about 300 g, were killed by a blow on the neck and exsanguinated. Smooth muscle strips of the urinary bladder were dissected in a Krebs-Henseleit solution (pH 7.4). The strip preparations were vertically mounted between two hooks in thermostatically controlled (37° C.) organ baths (5 ml). One of the hooks was adjustable and connected to a force transducer (FT 03, Grass Instruments). The Krebs-Henseleit solution was continuously bubbled with carbogen gas (93.5% O2/6.5% CO2) to maintain the pH at 7.4. Isometric tension was recorded by a Grass Polygraph (Model 79D). A resting tension of approximately 5 mN was initially applied on each muscle strip and the preparations were allowed to stabilize for at least 45 min. The resting tension was repeatedly adjusted and the preparations were washed several times during the stabilization period.
Carbachol (carbamylcholine chloride) was used as the standard agonist. In each experiment, the viability of the preparations and the reproducibility of their contractile responses were initially tested by three consecutive additions of a submaximal concentration (3×10^−6M) of carbachol. A complete concentration-response curve to carbachol was then generated by cumulative addition of carbachol to the organ-bath (i.e., stepwise increase of the agonist concentration until the maximal contractile response was reached), followed by washing out and a resting period of at least 15 min. before a fix concentration of the test compound (antagonist) was added to the organ-bath. After 60 min. of incubation with the antagonist, a second cumulative concentration-response curve to carbachol was generated. Responses were expressed as per cent of the maximal response to carbachol. EC50-values for carbachol in the absence (control) and presence of antagonist were graphically derived and dose ratios (r) were calculated. Dissociation constants, KB, for the antagonists were calculated using equation (1)^7, where [A] is the concentration of test compound. KB=[A]/r−1 (1)

[4] = Functional in vivo study in anaesthetized cats: blood pressure, blood flow, heart rate; settings: cat
Method: (§4) Adult cats were anaesthetized with mebumal (42 mg/kg) intraperitoneally. When the animal was asleep, an infusion cannula was inserted into the foreleg vein and the cat was given alpha-chloralose. During the experiment the animal was placed on an operation table warmed up with a feedback controlled electric pad. The cat was tracheotomized. For blood pressure registration, a polyethylene catheter was inserted into the femoral artery, with the tip in aorta, and connected via a three-way stopcock to a blood pressure transducer and a Grass polygraph. Heart rate was registered by connecting a tachograph to a driver amplifier which received the signal from the blood pressure transducer. Blood flow in the central mesenteric artery was measured by an ultrasound flow probe around the artery connected to a transonic blood flow meter and then to a Grass polygraph for registration of the flow. For infusion of the test substances, compounds D and A (as identified above), a polyethylene catheter was inserted into the femoral vein three-way stopcock to a syringe placed in an infusion pump (Sage instrument).
Through an incision in the proximal urethra, a catheter was inserted into the urinary bladder. At the beginning of each experiment, this catheter was connected to an open vessel, which was filled with 38° C. tempered physiological saline and placed above the animal. During this stabilization period the bladder relaxed, leading to a filling of the bladder with saline, under constant hydrostatic pressure. After the stabilization period, the bladder catheter was connected to a pressure transducer, for registration of intravesical pressure. Blood pressure, heart rate, blood flow and bladder pressure were recorded simultaneously and continuously throughout the experiment. The animals were left for at least 45 minutes to achieve steady state in cardiovascular variables before starting the experiment.
Bladder pressure was measured at 8 minutes after the end of infusion of the test substance. The surgical preparation was tested by intravenous injection of 0.25 μg/kg b.w. of noradrenalin and 0.5 μg/kg b.w. of acetylcholine.
To study the dose-response relationship of compound D identified above, the substance was administered at the doses 0.000 (physiological saline), 0.003, 0.010, 0.030 and 0.100 mg/kg, respectively, with infusion during 2 minutes and an infusion volume of 1 mL/kg. Every cat got all doses and was left to reestablish at least 45 minutes between the 0.003 and 0.010 mg/kg doses, and 60 minutes between the 0.030 and 0.100 mg/kg doses.
(§5) The results are presented in absolute values and calculated as mean value±standard deviation

[5] = system: acetylcholine-induced effect on the bladder; test: Functional in vivo study in anaesthetized cats: bladder pressure; settings: cat, intravenous infusion
Method: as §4, with “For infusion of the test substances, compounds D and A (as identified above), a polyethylene catheter was inserted into the femoral vein three-way stopcock to a syringe placed in an infusion pump (Sage instrument).” left out
Through an incision in the proximal urethra, a catheter was inserted into the urinary bladder. […] Blood pressure, heart rate, blood flow and bladder pressure were recorded simultaneously and continuously throughout the experiment. […]
Bladder pressure was measured at 8 minutes after the end of infusion of the test substance. […]
as §5

[6] = intravenous, highest dose (0.3 mg/kg)

| Compound | Ki [1] [nM] | Ki [2] [nM] | Kd [3] [nM] | increase of diastolic blood pressure ([4]; intravenous, 0,3 mg/kg) [%] | increase of systolic blood pressure ([4]; intravenous, 0,3 mg/kg) [%] | increase of the blood flow in superior mesenterica artery ([4]; intravenous, 0.003 mg/kg) [%] | increase of the blood flow in superior mesenterica artery ([4]; intravenous, 0.01 mg/kg) [%] | increase of the blood flow in superior mesenterica artery ([4]; intravenous, 0.03 mg/kg) [%] | effect on the blood pressure ([4]; intravenous, doses other than 0,3 mg/kg) | decrease of heart rate [4, 6] [%] | increase in blood flow [4, 6] [%] | inhibition of the acetylcholine-induced effect on the bladder (bladder pressure) ([5]; bladder pressure 8 minutes after end of infusion) | efficiency of bladder pressure inhibition relative to prior art compound A ([5]; versus compound A) |
| --- | --- | --- | --- | --- | --- | --- | --- | --- | --- | --- | --- | --- | --- |
| CC(C)N(CCC(c1ccccc1O)c1ccccc1O)C(C)C [(B), N,N-diisopropyl-3-bis-(2-hydroxyphenyl)propylamine hydrochloride] | 10.2 | 1.5 | – | – | – | – | – | – | – | – | – | – | – |
| CC(C)N(CCC(c1ccccc1O)c1cc(Cl)ccc1O)C(C)C (single isomer, unassigned; (+)) [(C), (+)N,N-diisopropyl-3-(5-chloro-2-hydroxyphenyl)-3-(2-hydroxyphenylpropylamine, hydrochloride] | 2.5 | 0.4 | 2.6 | – | – | – | – | – | – | – | – | – | – |
| CC(C)N(CCC(c1ccccc1)c1cc(CO)ccc1O)C(C)C (stereo not drawn) [(D), (+)-N,N-diisopropyl-3-(2-hydroxy-5-hydroxymethylphenyl)-3-phenylpropylamine(+)mandelic acid salt] | 4.5 | 0.7 | 4.1 | 10 | 6 | 8 | 17 | 21 | little or no effect | 9 | 10 | dose-dependent inhibition | about ten times more efficient |
| Cc1ccc(O)c(C(CCN(C(C)C)C(C)C)c2ccccc2)c1 (single isomer, unassigned; (+)) [(A), (+)N,N-diisopropyl-3-(2-hydroxy-5-methylphenyl)-3-phenylpropylamine, hydrochloride] | 2.7 | 0.8 | 3 | – | – | – | – | – | – | – | – | – | – |
